This passage reports EC50 results from patent US20240382482A1, “PLASMA KALLIKREIN INHIBITORS” (TAKEDA PHARMACEUTICAL COMPANY LIMITED, priority 2021, published 2024).

Structures are written as SMILES. Where a name gives a salt, the structure may show the parent alone.

The target of the test is human activated kallikrein enzyme (Homo sapiens, UniProt P03952). The test is described as follows: Inhibition of human activated kallikrein enzyme, fluorogenic peptide substrate assay (500 pM enzyme format). The settings on record: 500 pM activated kallikrein, 300 μM PFR-AMC substrate, 30 min preincubation, 10 min reaction, room temperature; read-out: Primary Dose Response Assay: Average EC50. Type of test: biochemical. As to the method: Compounds were evaluated for inhibition of the human activated kallikrein enzyme in two formats of an assay employing a fluorogenic peptide substrate. In one assay format, the concentrations of reagents were as follows: 20 mM Tris pH 7.5, 1 mM EDTA, 150 mM sodium chloride, 0.1% PEG-400, 0.1% Triton X-100, 500 pM activated kallikrein enzyme, 300 μM Pro-Phe-Arg-7-amido-4-methylcoumarin (PFR-AMC) substrate. Prior to reaction initiation with substrate, enzyme and inhibitors were preincubated for 30 min at room temperature. After initiation with substrate, reactions were incubated for 10 min at room temperature and fluorescence emission at 460 nm from 380 nm excitation measured with a microplate reader. In another assay format, the concentrations of reagents were as follows: 20 mM Tris pH 7.5, 1 mM EDTA, 150 mM sodium chloride, 0.1% PEG-400, 0.1% Triton X-100, 5 pM activated kallikrein enzyme, 300 uM PFR-AMC substrate. Prior to reaction initiation with substrate, enzyme and inhibitors were preincubated for 30 min at room temperature. After initiation with substrate, reactions were incubated for 18 hr at room temperature and fluorescence emission at 460 nm from 380 nm excitation measured with a microplate reader.
Table 1 provides the results of the assay in the format with 500 pM activated kallikrein assay. For the compounds listed in Table 1, the EC50 values are reported according to the following ranges: A≤5.0 nM; 5.0 nM<B≤50 nM; 50 nM<C≤500 nM; 500 nM<D≤9000 nM; 9000 nM<E.

Sequence of human activated kallikrein enzyme (P03952 391-638 limits assumed): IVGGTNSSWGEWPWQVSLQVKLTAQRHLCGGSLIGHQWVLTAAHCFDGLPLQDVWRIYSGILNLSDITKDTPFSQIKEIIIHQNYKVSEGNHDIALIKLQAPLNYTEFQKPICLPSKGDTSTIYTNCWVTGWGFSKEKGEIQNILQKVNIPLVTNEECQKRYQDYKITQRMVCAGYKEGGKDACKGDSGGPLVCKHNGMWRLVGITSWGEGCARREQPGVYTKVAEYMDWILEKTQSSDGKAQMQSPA
Sequence of human activated kallikrein enzyme (P03952 20-390 partner limits assumed): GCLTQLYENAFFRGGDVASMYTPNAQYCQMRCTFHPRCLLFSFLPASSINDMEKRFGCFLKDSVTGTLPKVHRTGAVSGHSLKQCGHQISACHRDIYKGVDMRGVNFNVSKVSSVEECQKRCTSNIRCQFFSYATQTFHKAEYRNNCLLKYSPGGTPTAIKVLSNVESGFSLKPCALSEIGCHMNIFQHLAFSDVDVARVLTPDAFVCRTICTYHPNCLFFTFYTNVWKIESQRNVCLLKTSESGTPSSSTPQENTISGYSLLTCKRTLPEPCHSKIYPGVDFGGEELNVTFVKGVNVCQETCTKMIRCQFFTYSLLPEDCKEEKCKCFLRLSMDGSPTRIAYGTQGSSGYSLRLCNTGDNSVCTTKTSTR

For the compound `N=S(=O)(Nc1cc(NCc2cn3cc(C4CC4)ccc3n2)ncn1)C1CC1c1cccc(Cl)c1` (racemic) [Example 142, (SR,1SR,2RS)-2-(3-chlorophenyl)-N-(6-(((6-cyclopropylimidazo[1,2-a]pyridin-2-yl)methyl)amino)pyrimidin-4-yl)cyclopropane-1-sulfonimidamide], the EC50 fell in the range of 500 to 9000 nM.
On to `O=C(Cc1ncnc2ccc(Cl)cc12)Nc1cc(NCc2cn3cc(C4CC4)ccc3n2)ncn1` [Example 104, 2-(6-chloroquinazolin-4-yl)-N-(6-(((6-cyclopropylimidazo[1,2-a]pyridin-2-yl)methyl)amino)pyrimidin-4-yl)acetamide], for which the EC50 is over 9000 nM.
For `CCOC(=O)C(C)(C)Cc1nc(NCc2c(C)cc(C(=N)N)cc2C)cc(OCc2cn3cc(C4CC4)ccc3n2)n1` [Example 93, ethyl 3-(4-((4-carbamimidoyl-2,6-dimethylbenzyl)amino)-6-((6-cyclopropylimidazo[1,2-a]pyridin-2-yl)methoxy)pyrimidin-2-yl)-2,2-dimethylpropanoate] the value was at most 5 nM; for `COc1ccc(=O)n(CC(=O)Nc2cc(NCc3cn4cc(C5CC5)ccc4n3)ncn2)c1` [Example 121, N-(6-(((6-cyclopropylimidazo[1,2-a]pyridin-2-yl)methyl)amino)pyrimidin-4-yl)-2-(5-methoxy-2-oxopyridin-1 (2H)-yl)acetamide], over 9000 nM.
For `O=C(Cn1c(=O)oc2ccc(Cl)cc21)Nc1cc(NCc2cn3cc(C4CC4)ccc3n2)ncn1` [Example 123, 2-(5-chloro-2-oxobenzo[d]oxazol-3 (2H)-yl)-N-(6-(((6-cyclopropylimidazo[1,2-a]pyridin-2-yl)methyl)amino)pyrimidin-4-yl)acetamide] the value was 500 to 9000 nM.
Take `CC(C)(C(=O)Nc1cc(NCc2cn3cc(C4CC4)ccc3n2)ncn1)c1ncn2ccc(Cl)cc12` [Example 5, 2-(7-chloroimidazo[1,5-a]pyridin-1-yl)-N-(6-(((6-cyclopropylimidazo[1,2-a]pyridin-2-yl)methyl)amino)pyrimidin-4-yl)-2-methylpropanamide]: the EC50 is 500 to 9000 nM.
For the compound `O=C(Cc1cc2c(Cl)c[nH]c2cc1F)Nc1cc(NCc2cn3cc(C4CC4)ccc3n2)ccn1` [Example 132, 2-(3-chloro-6-fluoro-1H-indol-5-yl)-N-(4-(((6-cyclopropylimidazo[1,2-a]pyridin-2-yl)methyl)amino)pyridin-2-yl)acetamide], the concentration for a half-maximal effect (EC50) was in the range of 5 to 50 nM.
For `Cc1cc(C(=N)NO)cc(C)c1CNc1cc(OCc2cn3cc(C4CC4)ccc3n2)nc(C(=O)O)n1` [Example 84, 4-((6-cyclopropylimidazo[1,2-a]pyridin-2-yl)methoxy)-6-((4-(N-hydroxycarbamimidoyl)-2,6-dimethylbenzyl)amino)pyrimidine-2-carboxylic acid] the value was 5 to 50 nM; for `COc1ccc(C#N)c(CC(=O)Nc2cc(NCc3cn4cc(C5CC5)ccc4n3)ncn2)c1F` [Example 3, 2-(6-cyano-2-fluoro-3-methoxyphenyl)-N-(6-(((6-cyclopropylimidazo[1,2-a]pyridin-2-yl)methyl)amino)pyrimidin-4-yl)acetamide], 500 to 9000 nM; for `COc1ccc2oc(=O)n(CC(=O)Nc3cc(NCc4cn5cc(C6CC6)ccc5n4)ncn3)c2c1` [Example 122, N-(6-(((6-cyclopropylimidazo[1,2-a]pyridin-2-yl)methyl)amino)pyrimidin-4-yl)-2-(5-methoxy-2-oxobenzo[d]oxazol-3 (2H)-yl)acetamide], over 9000 nM.
As to `CCOC(=O)CCc1cc(C2CC2)cn2cc(CNc3cc(NC(=O)Cc4ncn5ccc(Cl)cc45)ncn3)nc12` [Example 38, ethyl 3-(2-(((6-(2-(7-chloroimidazo[1,5-a]pyridin-1-yl)acetamido)pyrimidin-4-yl)amino)methyl)-6-cyclopropylimidazo[1,2-a]pyridin-8-yl)propanoate], the concentration giving a half-maximal response (EC50) is at most 5 nM.
Regarding `N#Cc1ccc(Cl)cc1CC(=O)Nc1cc(NCc2cn3cc(C4CC4)ccc3n2)ncn1` [Example 2, 2-(5-chloro-2-cyanophenyl)-N-(6-(((6-cyclopropylimidazo[1,2-a]pyridin-2-yl)methyl)amino)pyrimidin-4-yl)acetamide], the concentration for a half-maximal effect (EC50) was in the range of 500 to 9000 nM.
For `COc1ccc(CNc2cc(NCc3cn4cc(C5CC5)ccc4n3)ncn2)c(OC)c1` [Example 136, N^4-((6-cyclopropylimidazo[1,2-a]pyridin-2-yl)methyl)-N^6-(2,4-dimethoxybenzyl)pyrimidine-4,6-diamine] the value was 500 to 9000 nM; for `O=C(Cc1ncn2ccc(Cl)cc12)Nc1cc(C(O)c2cn3cc(C4CC4)ccc3n2)ncn1` (centres unmarked) [Example 59, 2-(7-chloroimidazo[1,5-a]pyridin-1-yl)-N-(6-((6-cyclopropylimidazo[1,2-a]pyridin-2-yl)(hydroxy)methyl)pyrimidin-4-yl)acetamide], at most 5 nM; for `CC(C(=O)Nc1cc(NCc2cn3cc(C4CC4)ccc3n2)ncn1)N(C)c1cccc(Cl)c1` (centres unmarked) [Example 9, 2-((3-chlorophenyl)(methyl)amino)-N-(6-(((6-cyclopropylimidazo[1,2-a]pyridin-2-yl)methyl)amino)pyrimidin-4-yl)propanamide], 500 to 9000 nM.
For `CCOC(=O)CCc1cc(C2CC2)cn2cc(COc3cc(NCc4c(C)cc(C(=N)N)cc4C)ncn3)nc12` [Example 96, ethyl 3-(2-(((6-((4-carbamimidoyl-2,6-dimethylbenzyl)amino)pyrimidin-4-yl)oxy)methyl)-6-cyclopropylimidazo[1,2-a]pyridin-8-yl)propanoate] the value was at most 5 nM.
In the case of `O=C(CNc1cc(Cl)ccc1-n1cnnn1)Nc1cc(NCc2cn3cc(C4CC4)ccc3n2)ccn1` [Example 117, 2-((5-chloro-2-(1H-tetrazol-1-yl)phenyl)amino)-N-(4-(((6-cyclopropylimidazo[1,2-a]pyridin-2-yl)methyl)amino)pyridin-2-yl)acetamide], the half-maximal effective concentration (EC50) is 5 to 50 nM.
As to `O=C(Cc1cc(Cl)ccc1-c1nnn[nH]1)Nc1cc(NCc2cn3cc(C4CC4)ccc3n2)ncn1` [Example 10, 2-(5-chloro-2-(1H-tetrazol-5-yl)phenyl)-N-(6-(((6-cyclopropylimidazo[1,2-a]pyridin-2-yl)methyl)amino)pyrimidin-4-yl)acetamide], the 50% effective concentration (EC50) is over 9000 nM.
For `Cc1cc(C(=N)N)cc(C)c1CNc1cc(OCc2cn3cc(C4CC4)ccc3n2)nc(C(=O)O)n1` [Example 85, 4-((4-carbamimidoyl-2,6-dimethylbenzyl)amino)-6-((6-cyclopropylimidazo[1,2-a]pyridin-2-yl)methoxy)pyrimidine-2-carboxylic acid] the value was at most 5 nM; for `CC(C(=O)Nc1cc(NCc2cn3cc(C4CC4)ccc3n2)ncn1)c1ncn2ccc(Cl)cc12` (centres unmarked) [Example 4, 2-(7-chloroimidazo[1,5-a]pyridin-1-yl)-N-(6-(((6-cyclopropylimidazo[1,2-a]pyridin-2-yl)methyl)amino)pyrimidin-4-yl)propanamide], 5 to 50 nM; for `CCOC(=O)NC(=N)c1cc(C)c(CNc2cc(OCc3cn4cc(C5CC5)ccc4n3)nc(C(=O)OCC)n2)c(C)c1` [Example 86, ethyl 4-((6-cyclopropylimidazo[1,2-a]pyridin-2-yl)methoxy)-6-(4-(N-(ethoxycarbonyl)carbamimidoyl)-2,6-dimethylbenzylamino)pyrimidine-2-carboxylate], 50 to 500 nM.
For `O=C(Cc1ncn2ccc(Cl)cc12)Nc1cncnc1NCc1cn2c(F)c(C3CC3)ccc2n1` [Example 43, 2-(7-chloroimidazo[1,5-a]pyridin-1-yl)-N-(4-(((6-cyclopropyl-5-fluoroimidazo[1,2-a]pyridin-2-yl)methyl)amino)pyrimidin-5-yl)acetamide] the value was 5 to 50 nM.
For `CC(=O)OCONC(=N)c1cc(C)c(CNc2cc(OCc3cn4cc(C5CC5)ccc4n3)ncn2)c(C)c1` [Example 90, ((4-(((6-((6-cyclopropylimidazo[1,2-a]pyridin-2-yl)methoxy)pyrimidin-4-yl)amino)methyl)-3,5-dimethylbenzimidamido)oxy)methyl acetate] the value was 500 to 9000 nM; for `O[C@H]1C[C@H](c2cn3cc(C4CC4)ccc3n2)N(c2cc(NCc3cnc4[nH]cc(Cl)c4c3)ncn2)C1` [Example 137, (3S,5R)-1-(6-(((3-chloro-1H-pyrrolo[2,3-b]pyridin-5-yl)methyl)amino)pyrimidin-4-yl)-5-(6-cyclopropylimidazo[1,2-a]pyridin-2-yl)pyrrolidin-3-ol], 50 to 500 nM; for `CC(Oc1cccc(Cl)c1)C(=O)Nc1cc(NCc2cn3cc(C4CC4)ccc3n2)ncn1` (centres unmarked) [Example 49, 2-(3-chlorophenoxy)-N-(6-(((6-cyclopropylimidazo[1,2-a]pyridin-2-yl)methyl)amino)pyrimidin-4-yl)propanamide formic acid salt], 500 to 9000 nM.
Turning to `CCOC(=O)c1nc(NCc2c(C)cc(C(=N)N)cc2C)cc(OCc2cn3cc(C4CC4)ccc3n2)n1` [Example 82, ethyl 4-((4-carbamimidoyl-2,6-dimethylbenzyl)amino)-6-((6-cyclopropylimidazo[1,2-a]pyridin-2-yl)methoxy)pyrimidine-2-carboxylate], the concentration giving a half-maximal response (EC50) is at most 5 nM.
